Measured values as given in patent publication US5670510A, “Pyridyl substituted spirodienes for the treatment of inflammation” (G. D. Searle & Co., priority 1996, dated 1997).

Tests used:
[1] = test system: cyclooxygenase II; details: literature: Meade et al; Futaki et al; cited from earlier work
[2] = literature: Futaki et al; cited from earlier work
[3] = test system: carrageenan-induced foot edema; test: Rat Carrageenan Foot Pad Edema Test; type: in vivo, Male Sprague-Dawley rats; details: oral, 3 h after carrageenan injection
Protocol: Rat Carrageenan Foot Pad Edema Test
The carrageenan foot edema test was performed with materials, reagents and procedures essentially as described by Winter, et al. (Proc. Soc. Exp. Biol. Med., 11, 544 (1962)). Male Sprague-Dawley rats were selected in each group so that the average body weight was as close as possible. Rats were fasted with free access to water for over sixteen hours prior to the test. The rats were dosed orally (1 mL) with compounds suspended in vehicle containing 0.5% methylcellulose and 0.025% surfactant, or with vehicle alone. One hour later a subplantar injection of 0.1 mL of 1% solution of carrageenan/sterile 0.9% saline was administered and the volume of the injected foot was measured with a displacement plethysmometer connected to a pressure transducer with a digital indicator. Three hours after the injection of the carrageenan, the volume of the foot was again measured. The average foot swelling in a group of drug-treated animals was compared with that of a group of placebo-treated animals and the percentage inhibition of edema was determined (Ottertess and Bliven, Laboratory Models for Testing NSAIDs, in Non-steroidal Anti-inflammatory Drugs, (J. Lombardino, ed. 1985)).

[4] = test system: carrageenan-induced hyperalgesic foot withdrawal; test: Rat Carrageenan-induced Analgesia Test; type: in vivo, Male Sprague-Dawley rats; details: oral, inhibition of hyperalgesic foot withdrawal 3 h after carrageenan
Protocol: Rat Carrageenan-induced Analgesia Test
The rat carrageenan analgesia test was performed with materials, reagents and procedures essentially as described by Hargreaves, et al. (Pain, 32, 77 (1988)). Male Sprague-Dawley rats were treated as previously described for the Carrageenan Foot Pad Edema test. Three hours after the injection of the carrageenan, the rats were placed in a special plexiglass container with a transparent floor having a high intensity lamp as a radiant heat source, positionable under the floor. After an initial twenty minute period, thermal stimulation was begun on either the injected foot or on the contralateral uninjected foot. A photoelectric cell turned off the lamp and timer when light was interrupted by paw withdrawal. The time until the rat withdraws its foot was then measured. The withdrawal latency in seconds was determined for the control and drug-treated groups, and percent inhibition of the hyperalgesic foot withdrawal determined.

[5] = test system: COX I; details: read-out: COX I ID50; arachidonic acid 10 μM; pH 8.0; pre-incubated 10-20 minutes
Protocol: Recombinant baculoviruses were isolated by transfecting 4 μg of baculovirus transfer vector DNA into SF9 insect cells ([…]) along with 200 ng of linearized baculovirus plasmid DNA by the calcium phosphate method. […] Exp. Station Bull. 1555 (1987). Recombinant viruses were purified by three rounds of plaque purification and high titer (10E7-10E8 pfu/ml) stocks of virus were prepared. For large scale production, SF9 insect cells were infected in 10 liter fermentors (0.5×10^6 /ml) with the recombinant baculovirus stock such that the multiplicity of infection was 0.1. After 72 hours the cells were centrifuged and the cell pellet homogenized in Tris/Sucrose (50 mM: 25%, pH 8.0) containing 1% 3-[(3-cholamidopropyl)dimethylammonio]-1-propanesulfonate (CHAPS). The homogenate was centrifuged at 10,000×G for 30 minutes, and the resultant supernatant was stored at -80° C. before being assayed for COX activity.
COX activity was assayed as PGE2 formed/μg protein/time using an ELISA to detect the prostaglandin released. CHAPS-solubilized insect cell membranes containing the appropriate COX enzyme were incubated in a potassium phosphate buffer (50 mM, pH 8.0) containing epinephrine, phenol, and heme with the addition of arachidonic acid (10 μM). […] The PGE2 formed was measured by standard ELISA technology (Cayman Chemical).

Row | SMILES | inhibition of COX II enzyme [1] | gastric side effects [2] | RAT PAW EDEMA % Inhibition @ 30 mg/kg body weight [3] | ANALGESIA % Inhibition @ 10 mg/kg body weight [4] | IC50 [5]
1 | CS(=O)(=O)Nc1ccc([N+](=O)[O-])cc1OC1CCCCC1 [N-(2-cyclohexyloxy-4-nitrophenyl)methanesulfonamide] | inhibits cyclooxygenase II | lacks gastric side effects | – | – | –
2 | CS(=O)(=O)c1ccc(C2=CC3(C=C2c2ccc(F)cc2)CC3)cc1 [Example 1, 5-(4-Fluorophenyl)-6-[4-(methylsulfonyl)phenyl]spiro[2.4]hepta-4,6-diene] | – | – | 49% | 94% | 1300 nM
3 | COc1ccc2cc(CC(=O)O)ccc2c1 [6-methoxy-2-napthylacetic acid] | selectively inhibit the COX II enzyme | – | – | – | –
